Among the test systems are NCI-H226 lung; EKVX NSCLC; MALME-3M melanoma; K-562 leukemia; SW-620 colon; HL-60(TB) leukemia; IGROV1 ovarian; UO-31 renal; T-47D breast; HS 578T breast.
What all share (assay): DTP human tumour cell line panel, 48 h

Molecules are shown by their SMILES. Several values for one entry are separate records, joined by “and”; a condition that tells them apart may be missing. Identical values can stand only once.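 Briefly, cells in 96-well plates were exposed to five compound concentrations for 48 h, and endpoints were estimated by linear interpolation. GI50 is the concentration that inhibits growth by half. TGI: total growth inhibition.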

Broadly, the GI50 is the concentration that inhibits growth by half. By TGI is commonly meant the concentration at which net growth stops. Consider `CC(=O)[CH-]C(C)=O.CC(=O)[CH-]C(C)=O.[O-]c1ccccc1.[O-]c1ccccc1.[Ti+4]`, for which the GI50 in the assay on NCI-H226 lung, in the assay with EKVX NSCLC, with MALME-3M melanoma, with K-562 leukemia, with SW-620 colon and in the assay with HL-60(TB) leukemia was greater than 100 µM in each case. Moreover, the GI50 with IGROV1 ovarian and with UO-31 renal was greater than 100 µM in each case. Further, the TGI in the assay with NCI-H226 lung, with EKVX NSCLC, in the assay with MALME-3M melanoma, in the assay with K-562 leukemia, in the assay on SW-620 colon and in the assay on HL-60(TB) leukemia was greater than 100 µM throughout. Also, the TGI in the assay on IGROV1 ovarian and with UO-31 renal was greater than 100 µM throughout.

On to `Cc1ccccc1NC(=O)CSc1nnc(-c2ccc(N=Cc3ccc(Cl)cc3)cc2)o1`, for which the TGI with NCI-H226 lung, in the assay on EKVX NSCLC, in the assay on MALME-3M melanoma, in the assay with K-562 leukemia, in the assay with SW-620 colon and with HL-60(TB) leukemia was greater than 100 µM in each case. For the same compound, in the assay with UO-31 renal, the TGI was greater than 100 µM.

Regarding `O=C1NC(O)n2c(=O)[nH]c(=O)n21` (stereo unspecified), the TGI in the assay with NCI-H226 lung, with EKVX NSCLC, with K-562 leukemia, in the assay on SW-620 colon, in the assay with HL-60(TB) leukemia and with IGROV1 ovarian was greater than 100 µM throughout. The same compound showed a TGI with UO-31 renal greater than 100 µM.

Regarding `c1ccc2c(c1)[nH]c1c2nc2ccccn21`, the TGI with NCI-H226 lung, with EKVX NSCLC, in the assay on MALME-3M melanoma, with K-562 leukemia, in the assay on SW-620 colon and with HL-60(TB) leukemia was greater than 100 µM throughout. Also, the TGI with IGROV1 ovarian and with UO-31 renal was greater than 100 µM throughout. The GI50 was 27.8 µM and > 100 µM in the assay with MALME-3M melanoma; 42.8 µM and > 100 µM in the assay on HL-60(TB) leukemia.

Turning to `COc1cc2c(cc1C)NC(=O)/C2=C/c1ccnc2ccccc12`, the GI50 with T-47D breast was 28.7 µM; in the assay on EKVX NSCLC, 25.5 µM; in the assay with K-562 leukemia, 6.34 µM; with SW-620 colon, greater than 50 µM; with HL-60(TB) leukemia, 30.7 µM; in the assay on HS 578T breast it was 40.1 µM. The GI50 is 12.6 µM with IGROV1 ovarian and 18.9 µM with UO-31 renal. Moreover, the TGI is greater than 50 µM with T-47D breast; greater than 50 µM with EKVX NSCLC; 33.6 µM in the assay with K-562 leukemia; greater than 50 µM in the assay with SW-620 colon; greater than 50 µM in the assay with HL-60(TB) leukemia; greater than 50 µM in the assay on HS 578T breast. Also, the TGI in the assay with IGROV1 ovarian and in the assay on UO-31 renal was greater than 50 µM each time.

In the case of `Cc1cc(=O)[nH]c(NNC(C#N)c2cccc([N+](=O)[O-])c2)n1` (stereo unspecified), the TGI with NCI-H226 lung, with MALME-3M melanoma, in the assay with K-562 leukemia, with SW-620 colon, in the assay on HL-60(TB) leukemia and with IGROV1 ovarian was greater than 100 µM each time. In the assay with UO-31 renal, this compound yielded a TGI greater than 100 µM.

Take `CC(C)(C)C#COC(=O)c1ccccc1`: the TGI in the assay on NCI-H226 lung, with EKVX NSCLC, in the assay with MALME-3M melanoma, in the assay with K-562 leukemia, in the assay on SW-620 colon and in the assay with HL-60(TB) leukemia was greater than 100 µM each time. Also, the TGI in the assay on IGROV1 ovarian and in the assay on UO-31 renal was greater than 100 µM in each case.

For the compound `O=c1c2cccnc2ncn1CCCN1CCCCC1`, the concentration for total growth inhibition (TGI) in the assay on NCI-H226 lung, in the assay with EKVX NSCLC, in the assay with MALME-3M melanoma, in the assay on K-562 leukemia, in the assay on SW-620 colon and in the assay with IGROV1 ovarian was greater than 100 µM in each case. Further, the TGI in the assay on UO-31 renal is greater than 100 µM.

Regarding `CCOc1ccc(NC(=O)/C(CC(=O)c2c[n+](=O)c3ccccc3n2[O-])=N\OCCCc2ccccc2)cc1`, the TGI in the assay with NCI-H226 lung, in the assay on EKVX NSCLC, in the assay on MALME-3M melanoma, with K-562 leukemia, in the assay with SW-620 colon and with HL-60(TB) leukemia was greater than 100 µM throughout. In addition, the TGI with IGROV1 ovarian and in the assay on UO-31 renal was greater than 100 µM throughout.

With `O=C1CC23CCCCCCCCCCC2(C1)CC(=O)C3` (stereo unspecified), the TGI in the assay with NCI-H226 lung is greater than 100 µM; in the assay with EKVX NSCLC, greater than 100 µM; with MALME-3M melanoma it was 76.1 µM; in the assay with K-562 leukemia it was 73.3 µM; in the assay on SW-620 colon, greater than 100 µM; with HL-60(TB) leukemia, 39.2 µM. The TGI is 83 µM in the assay on IGROV1 ovarian and 61.2 µM in the assay on UO-31 renal.

As for `Cc1cccc(N2C(=O)/C(=C/C(Cl)=C/c3ccc([N+](=O)[O-])cc3)SC2=S)c1C`, the GI50 was 2.7 µM in the assay on T-47D breast; 2.73 µM with EKVX NSCLC; 0.793 µM in the assay on K-562 leukemia; 1.95 µM in the assay on SW-620 colon; 1.91 µM with HL-60(TB) leukemia; 2.8 µM in the assay on HS 578T breast. Moreover, the GI50 in the assay on UO-31 renal was 1.29 µM. The TGI in the assay on T-47D breast is greater than 100 µM; in the assay on EKVX NSCLC, greater than 100 µM; with K-562 leukemia, greater than 100 µM; in the assay on SW-620 colon it was 4.77 µM; in the assay on HL-60(TB) leukemia it was 6.94 µM; with HS 578T breast, greater than 100 µM. This compound also yielded a TGI with UO-31 renal of 2.56 µM.

In the case of `O=C1c2ccccc2-c2nc3ccncc3n21`, the TGI with NCI-H226 lung, in the assay with EKVX NSCLC, in the assay on MALME-3M melanoma, in the assay on K-562 leukemia, with SW-620 colon and in the assay with HL-60(TB) leukemia was greater than 100 µM throughout. The TGI with IGROV1 ovarian and in the assay with UO-31 renal was greater than 100 µM in each case.

In the case of `COC1(OC)C2(Cl)C3=CCCC=C3C1(Cl)C(Cl)=C2Cl`, the TGI is 82.4 µM in the assay on NCI-H226 lung; 71.5 µM with EKVX NSCLC; 49.2 µM in the assay with MALME-3M melanoma; 36.9 µM in the assay on SW-620 colon; 33.2 µM in the assay with HL-60(TB) leukemia; greater than 100 µM in the assay with IGROV1 ovarian. The compound also came in with a TGI in the assay with UO-31 renal of 69 µM.

Consider `COc1cc(C)c2c(c1)CN1CN2Cc2cc(OC)cc(C)c21`, for which the TGI in the assay with NCI-H226 lung is greater than 100 µM; in the assay with EKVX NSCLC, greater than 100 µM; in the assay on MALME-3M melanoma it was greater than 100 µM; in the assay on K-562 leukemia it was greater than 100 µM; in the assay with SW-620 colon it was greater than 100 µM; with HL-60(TB) leukemia, 64.2 µM. The figures for the TGI with IGROV1 ovarian and in the assay on UO-31 renal were greater than 100 µM and 85.5 µM, respectively.
